How the values were obtained:
bladder tissue [1] = conditions: rabbits; intravesical instillation of crushed tablets; cited from earlier work
[2] = compared with administration of equivalent oral dosages; cited from earlier work
[3] = plasma concentrations of trospium chloride after intravesicular instillation; format: in vivo; conditions: intravesicular instillation of 7.5 mg trospium chloride/20 ml; period of 12 hours; sensitive, validated measuring method
Experimental: It is particularly advantageous to prepare said aqueous solution with a pH-value≥4.5 immediately prior to administration, in order to prevent any decomposition of the active agent trospium chloride. In particular, the pH-value of the inventive formulation is 5.0 to 7.5, so that it falls entirely within the pH-value range of the normal urine of healthy humans. […] This was confirmed by measuring plasma concentrations of trospium chloride after intravesicular instillation of 7.5 mg trospium chloride/20 ml for a period of 12 hours.

bladder tissue [4] = test: study on beagles concerning local compatibility following once daily intravesical instillation over 4 weeks; format: in vivo; conditions: selected formulation
[5] = tested on: smooth muscle cells of the detrusor; test: internal investigations: direct (musculotropic) action on smooth muscle cells of the detrusor; format: cell-based
Description: It will be appreciated that the active agent trospium chloride acts as an anticholinergic, i.e. it occupies receptors of the parasympathetic nervous system, without causing the effects induced by the natural neurotransmitter acetyl choline (neurotropic action). The anticholinergic power of trospium chloride in vitro is 20 times greater than that of oxybutynin (Eckert R. E., Wilhelm A., Schwantes U., Utz J. Alloussi S., Trautwein W. & Ziegler M., Modulation of the cytoplasmic Ca^2+ concentration of isolated myocytes of the detrusor vesicae by anticholinergics, Akt. Urol. 26, 46, 1995). […] These musculotropic characteristics are particularly important in the case of direct administration to the bladder.

[6] = stability of the aqueous solution during storage and transportation; format: physicochemical
Experimental: Accordingly, the invention provides for an aqueous trospium chloride solution prepared from two components, as described above. For the aqueous solution to remain stable for a long time during storage and transportation, the pH-value should be lower than 4.5. However, such a solution has never been considered suitable for administration to the bladder and is also unacceptable for physiological reasons. Therefore the invention assumes that the aqueous solution is prepared prior to administration with a pH-value equal to or greater than 4.5, in order to exclude from the outset ageing, storage and transportation problems.

[7] = tested on: isolated myocytes of the detrusor vesicae; conditions: greater than that of oxybutynin; cited from earlier work
[8] = oral and rectal administration forms; cited from earlier work

Row | SMILES | inflammatory processes in the region of the bladder tissue (histological evaluation) (bladder tissue [1]) | absorption following intravesicular instillation [2] | plasma concentrations [3] | local compatibility (local adverse effects to the bladder tissue) (bladder tissue [4]) | direct action on smooth muscle cells of the detrusor (basal Ca^2+ flow) [5] | pH-value for the aqueous solution to remain stable for a long time [6] | anticholinergic power in vitro, relative to oxybutynin [7] [times] | absorption from the intestinal lumen into the system [8]
1 | CCN(CC)CC#CCOC(=O)C(O)(c1ccccc1)C1CCCCC1 (centres unmarked) [oxybutynin] | Inflammatory processes were detected | absorbed to a greater extent |  |  |  |  |  | 
2 | O=C(O[C@H]1C[C@H]2CC[C@@H](C1)[N+]21CCCC1)C(O)(c1ccccc1)c1ccccc1 [trospium chloride] |  |  | At no time plasma concentrations were detected that were above the detection limit | did not lead to local adverse effects to the bladder tissue | inhibition of the basal Ca^2+ flow | lower than 4.5 | 20 | poor absorption

— patent publication US5998430A, “Use of trospium chloride and 2-component system for the same” (Dr. R. Pfleger Chemische Fabrik GmbH, priority 1996, dated 1999)
